Results published in ChEMBL document CHEMBL5465560, “Selectivity Literature for EUbOPEN Chemogenomic Library” (2024).

What was measured:
[1] = molecular target: Proto-oncogene tyrosine-protein kinase receptor Ret (Homo sapiens, UniProt P07949); assay: Selectivity interaction (Millipore kinase profiler) EUB0000124b RET; conditions: at 10 µM
[2] = molecular target: Protein kinase C beta type (Homo sapiens, UniProt P05771); assay: Selectivity interaction (Kinase panel (literature)) EUB0001199aCl PRKCB; conditions: at 1 µM
[3] = molecular target: Tyrosine-protein kinase Blk (Homo sapiens) (UniProt P51451); assay: Selectivity interaction (KinomeScan (DiscoverX)) EUB0001079a BLK; conditions: at 1 µM
[4] = molecular target: Tyrosine-protein kinase SYK (Homo sapiens, UniProt P43405); conditions: at 10 µM
[5] = molecular target: Maternal embryonic leucine zipper kinase (Homo sapiens) (UniProt Q14680); assay: Selectivity interaction (Kinase panel (DSF assay)) EUB0001559a MELK
[6] = molecular target: T1, Serine/threonine-protein kinase 3 (Homo sapiens) (UniProt Q13188); assay: Selectivity interaction (Kinase panel (DSF assay)) EUB0001559a STK3
T1 sequence (whole entry): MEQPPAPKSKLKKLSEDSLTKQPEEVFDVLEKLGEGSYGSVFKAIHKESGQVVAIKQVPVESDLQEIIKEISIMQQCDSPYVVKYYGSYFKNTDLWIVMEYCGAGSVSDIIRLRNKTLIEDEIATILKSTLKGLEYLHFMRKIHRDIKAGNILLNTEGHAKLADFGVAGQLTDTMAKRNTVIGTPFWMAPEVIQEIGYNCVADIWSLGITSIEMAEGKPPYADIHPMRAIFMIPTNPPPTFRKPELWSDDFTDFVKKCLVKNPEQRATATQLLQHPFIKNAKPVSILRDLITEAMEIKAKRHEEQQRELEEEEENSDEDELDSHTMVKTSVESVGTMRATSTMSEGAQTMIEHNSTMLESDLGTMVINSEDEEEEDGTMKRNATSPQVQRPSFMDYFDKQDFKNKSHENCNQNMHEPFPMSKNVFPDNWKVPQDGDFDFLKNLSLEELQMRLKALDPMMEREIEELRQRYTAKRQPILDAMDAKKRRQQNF

[7] = molecular target: G protein-coupled receptor kinase 6 (Homo sapiens) (UniProt P43250); assay: Selectivity interaction (Kinase panel (Invitrogen)) EUB0000639a GRK6; conditions: at 200 nM
[8] = molecular target: Casein kinase II subunit alpha' (Homo sapiens) (UniProt P19784); assay: Selectivity interaction (ActivX KiNativ screen (kinase selectivity in THP-1 cell lysates)) EUB0000639a CSNK2A2; format: subcellular; conditions: lysate
[9] = molecular target: T2, Mitogen-activated protein kinase kinase kinase 13 (Homo sapiens) (UniProt O43283); assay: Selectivity interaction (Ambit KINOMEscan and KiNATiv profiling in Jurkat cells) EUB0000090b MAP3K13; format: cell-based; conditions: at 1 µM
T2 sequence (whole entry): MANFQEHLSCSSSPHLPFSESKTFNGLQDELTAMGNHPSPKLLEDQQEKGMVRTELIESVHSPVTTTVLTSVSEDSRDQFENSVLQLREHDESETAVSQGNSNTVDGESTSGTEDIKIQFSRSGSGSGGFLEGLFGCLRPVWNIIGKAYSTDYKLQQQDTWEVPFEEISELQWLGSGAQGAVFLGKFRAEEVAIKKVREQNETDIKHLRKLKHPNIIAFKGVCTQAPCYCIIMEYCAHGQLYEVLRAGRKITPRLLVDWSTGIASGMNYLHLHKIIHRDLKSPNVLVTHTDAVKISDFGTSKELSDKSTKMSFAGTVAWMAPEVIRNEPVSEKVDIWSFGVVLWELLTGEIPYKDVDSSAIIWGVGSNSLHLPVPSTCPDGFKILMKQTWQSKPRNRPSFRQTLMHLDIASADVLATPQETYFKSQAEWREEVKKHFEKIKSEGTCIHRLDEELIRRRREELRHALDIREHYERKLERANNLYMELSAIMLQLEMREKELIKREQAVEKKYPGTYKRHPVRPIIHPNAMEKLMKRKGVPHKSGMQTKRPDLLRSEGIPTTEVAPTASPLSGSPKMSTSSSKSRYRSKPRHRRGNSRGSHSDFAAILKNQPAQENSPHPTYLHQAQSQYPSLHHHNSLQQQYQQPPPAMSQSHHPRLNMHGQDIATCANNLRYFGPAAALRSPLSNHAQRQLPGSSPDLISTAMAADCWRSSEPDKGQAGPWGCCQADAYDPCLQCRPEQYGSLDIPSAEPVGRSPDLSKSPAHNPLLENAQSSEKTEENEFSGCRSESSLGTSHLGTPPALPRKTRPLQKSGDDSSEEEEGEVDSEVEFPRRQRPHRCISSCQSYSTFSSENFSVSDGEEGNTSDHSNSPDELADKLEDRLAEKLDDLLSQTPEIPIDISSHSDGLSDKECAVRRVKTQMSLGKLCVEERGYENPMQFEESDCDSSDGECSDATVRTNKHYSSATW

[10] = molecular target: Ribosomal protein S6 kinase alpha-1 (Homo sapiens, UniProt Q15418); assay: Selectivity interaction (KinomeScan (DiscoverX)) EUB0000045b RPS6KA1
[11] = molecular target: Phosphorylase b kinase gamma catalytic chain, skeletal muscle/heart isoform (Homo sapiens) (UniProt Q16816); conditions: at 10 µM
[12] = molecular target: Ribosomal protein S6 kinase alpha-6 (Homo sapiens, UniProt Q9UK32); assay: Selectivity interaction (KinomeScan (DiscoverX)) EUB0000695a RPS6KA6; conditions: at 100 nM
[13] = molecular target: LIM domain kinase 1 (Homo sapiens) (UniProt P53667); assay: Selectivity interaction (LanthaScreen Eu Kinase Binding Assay) EUB0001632a LIMK1; conditions: at 10 µM
[14] = molecular target: Macrophage-stimulating protein receptor (Homo sapiens, UniProt Q04912); assay: Selectivity interaction (Kinase panel (Z-LYTE Assay)) EUB0001632a MST1R; conditions: at 10 µM
D(2) dopamine receptor = D(2) dopamine receptor (Homo sapiens, UniProt P14416); assay: Selectivity interaction (Panel of non-epigenetic targets (kinases, GPCRs, ion channels, and transporters, Eurofins) ) EUB0000271b DRD2; conditions: at 1 µM
D(2) dopamine receptor, sequence (P14416 whole entry): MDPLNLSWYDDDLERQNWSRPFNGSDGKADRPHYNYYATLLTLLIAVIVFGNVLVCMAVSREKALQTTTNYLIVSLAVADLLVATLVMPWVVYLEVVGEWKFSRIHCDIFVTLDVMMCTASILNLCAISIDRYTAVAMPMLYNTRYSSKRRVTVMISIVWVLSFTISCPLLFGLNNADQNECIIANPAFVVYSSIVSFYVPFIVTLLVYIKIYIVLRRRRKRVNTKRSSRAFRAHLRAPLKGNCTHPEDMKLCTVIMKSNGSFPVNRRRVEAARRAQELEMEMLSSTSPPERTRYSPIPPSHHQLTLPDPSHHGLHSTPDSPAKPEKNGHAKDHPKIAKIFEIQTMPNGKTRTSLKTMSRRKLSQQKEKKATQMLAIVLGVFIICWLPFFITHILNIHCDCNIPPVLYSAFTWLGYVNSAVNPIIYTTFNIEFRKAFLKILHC

Casein kinase II subunit alpha' (Homo sapiens), sequence (P19784 whole entry, looked up): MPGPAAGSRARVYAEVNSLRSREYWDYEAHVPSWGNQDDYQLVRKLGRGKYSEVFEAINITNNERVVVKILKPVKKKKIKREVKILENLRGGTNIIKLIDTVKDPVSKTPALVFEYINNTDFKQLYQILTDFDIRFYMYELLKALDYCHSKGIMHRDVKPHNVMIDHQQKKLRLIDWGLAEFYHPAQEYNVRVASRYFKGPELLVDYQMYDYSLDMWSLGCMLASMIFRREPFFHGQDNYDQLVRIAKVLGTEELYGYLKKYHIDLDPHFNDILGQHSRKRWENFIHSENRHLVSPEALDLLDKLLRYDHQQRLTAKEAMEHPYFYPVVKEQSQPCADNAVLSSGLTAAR
Ribosomal protein S6 kinase alpha-1, sequence (Q15418 whole entry, canonical isoform): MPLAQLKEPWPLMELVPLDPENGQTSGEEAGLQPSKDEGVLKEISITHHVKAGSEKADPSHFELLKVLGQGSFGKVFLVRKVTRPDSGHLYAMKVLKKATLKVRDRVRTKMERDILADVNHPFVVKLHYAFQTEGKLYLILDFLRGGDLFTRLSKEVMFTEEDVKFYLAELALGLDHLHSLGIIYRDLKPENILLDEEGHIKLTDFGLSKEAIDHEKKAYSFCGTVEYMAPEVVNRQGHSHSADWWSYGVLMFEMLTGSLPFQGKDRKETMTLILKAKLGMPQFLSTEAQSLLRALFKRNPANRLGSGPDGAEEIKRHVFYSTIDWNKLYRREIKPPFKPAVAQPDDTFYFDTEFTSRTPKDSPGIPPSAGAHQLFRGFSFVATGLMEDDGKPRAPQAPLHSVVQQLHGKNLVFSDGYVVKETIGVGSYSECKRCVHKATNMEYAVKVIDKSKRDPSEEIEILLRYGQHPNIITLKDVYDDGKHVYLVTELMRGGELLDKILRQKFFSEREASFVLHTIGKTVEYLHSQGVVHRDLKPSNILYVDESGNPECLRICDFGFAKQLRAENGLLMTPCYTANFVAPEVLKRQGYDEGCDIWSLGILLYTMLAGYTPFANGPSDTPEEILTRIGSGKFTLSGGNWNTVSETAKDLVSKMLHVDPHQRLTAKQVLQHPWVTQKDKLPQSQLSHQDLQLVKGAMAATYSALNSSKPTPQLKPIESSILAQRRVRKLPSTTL
Proto-oncogene tyrosine-protein kinase receptor Ret, sequence (P07949 whole entry): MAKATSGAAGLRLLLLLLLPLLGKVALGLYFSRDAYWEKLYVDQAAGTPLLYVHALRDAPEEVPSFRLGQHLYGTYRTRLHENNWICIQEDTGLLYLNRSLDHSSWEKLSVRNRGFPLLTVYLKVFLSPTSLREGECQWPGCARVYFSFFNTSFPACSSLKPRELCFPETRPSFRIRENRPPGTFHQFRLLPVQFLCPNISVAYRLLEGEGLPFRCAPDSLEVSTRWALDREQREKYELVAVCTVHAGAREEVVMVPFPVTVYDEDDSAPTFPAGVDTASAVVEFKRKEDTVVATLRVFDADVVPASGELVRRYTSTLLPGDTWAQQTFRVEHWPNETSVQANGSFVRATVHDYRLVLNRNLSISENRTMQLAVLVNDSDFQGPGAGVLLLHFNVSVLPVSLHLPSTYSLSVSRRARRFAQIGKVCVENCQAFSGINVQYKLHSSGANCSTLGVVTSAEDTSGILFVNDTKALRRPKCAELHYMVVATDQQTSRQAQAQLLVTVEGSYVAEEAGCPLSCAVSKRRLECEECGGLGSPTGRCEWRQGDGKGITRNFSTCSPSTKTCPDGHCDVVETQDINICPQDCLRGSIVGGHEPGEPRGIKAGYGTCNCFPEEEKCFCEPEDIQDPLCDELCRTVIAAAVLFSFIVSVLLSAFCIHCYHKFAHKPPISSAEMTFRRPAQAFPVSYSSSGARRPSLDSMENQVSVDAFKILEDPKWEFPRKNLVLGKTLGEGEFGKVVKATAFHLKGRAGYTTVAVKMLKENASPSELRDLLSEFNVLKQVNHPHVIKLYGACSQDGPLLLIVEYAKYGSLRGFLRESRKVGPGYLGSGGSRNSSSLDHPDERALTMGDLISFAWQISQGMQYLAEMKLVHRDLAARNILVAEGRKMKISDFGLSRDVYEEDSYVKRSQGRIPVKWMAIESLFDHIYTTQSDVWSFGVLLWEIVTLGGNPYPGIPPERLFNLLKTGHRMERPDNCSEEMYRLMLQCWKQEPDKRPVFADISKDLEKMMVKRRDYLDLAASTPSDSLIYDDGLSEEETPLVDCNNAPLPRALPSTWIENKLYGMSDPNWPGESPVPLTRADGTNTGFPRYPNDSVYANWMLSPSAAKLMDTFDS
Ribosomal protein S6 kinase alpha-6, sequence (Q9UK32 whole entry, the tested form may be a part): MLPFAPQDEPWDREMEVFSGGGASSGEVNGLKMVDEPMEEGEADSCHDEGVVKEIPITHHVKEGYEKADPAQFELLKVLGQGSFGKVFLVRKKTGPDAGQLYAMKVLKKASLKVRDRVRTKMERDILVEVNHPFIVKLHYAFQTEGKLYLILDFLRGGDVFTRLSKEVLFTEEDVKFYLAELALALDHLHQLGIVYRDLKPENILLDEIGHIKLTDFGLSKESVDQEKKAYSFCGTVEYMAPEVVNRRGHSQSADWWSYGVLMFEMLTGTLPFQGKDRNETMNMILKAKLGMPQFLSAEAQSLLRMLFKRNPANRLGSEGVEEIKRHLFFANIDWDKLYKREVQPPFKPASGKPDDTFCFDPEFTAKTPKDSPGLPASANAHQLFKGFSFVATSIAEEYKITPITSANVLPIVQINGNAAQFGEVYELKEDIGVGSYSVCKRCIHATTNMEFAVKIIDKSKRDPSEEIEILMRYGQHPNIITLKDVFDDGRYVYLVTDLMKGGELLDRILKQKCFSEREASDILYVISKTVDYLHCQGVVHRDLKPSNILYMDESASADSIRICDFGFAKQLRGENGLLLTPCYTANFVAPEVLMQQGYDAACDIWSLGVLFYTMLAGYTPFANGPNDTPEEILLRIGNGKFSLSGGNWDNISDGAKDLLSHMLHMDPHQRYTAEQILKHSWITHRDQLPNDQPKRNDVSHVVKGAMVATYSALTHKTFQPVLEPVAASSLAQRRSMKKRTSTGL
Protein kinase C beta type, sequence (P05771 2-671 limits assumed): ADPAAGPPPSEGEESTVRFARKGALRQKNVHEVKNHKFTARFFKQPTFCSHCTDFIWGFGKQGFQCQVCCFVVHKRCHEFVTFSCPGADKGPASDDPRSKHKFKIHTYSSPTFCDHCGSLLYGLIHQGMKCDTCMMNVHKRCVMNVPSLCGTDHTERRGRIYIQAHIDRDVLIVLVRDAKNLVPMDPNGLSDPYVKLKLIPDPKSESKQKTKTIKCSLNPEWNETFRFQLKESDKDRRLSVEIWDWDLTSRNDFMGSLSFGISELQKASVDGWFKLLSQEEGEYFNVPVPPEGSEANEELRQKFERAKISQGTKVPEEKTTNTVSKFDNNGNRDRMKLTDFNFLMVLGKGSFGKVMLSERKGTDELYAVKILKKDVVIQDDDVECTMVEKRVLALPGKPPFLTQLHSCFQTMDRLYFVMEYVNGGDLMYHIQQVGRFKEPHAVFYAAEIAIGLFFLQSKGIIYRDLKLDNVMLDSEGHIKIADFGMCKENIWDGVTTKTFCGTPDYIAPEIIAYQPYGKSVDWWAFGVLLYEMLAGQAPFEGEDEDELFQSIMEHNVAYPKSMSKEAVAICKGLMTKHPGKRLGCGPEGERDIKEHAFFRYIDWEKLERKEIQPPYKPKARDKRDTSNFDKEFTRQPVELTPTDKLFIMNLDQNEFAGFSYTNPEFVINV
G protein-coupled receptor kinase 6 (Homo sapiens), sequence (P43250 whole entry, looked up): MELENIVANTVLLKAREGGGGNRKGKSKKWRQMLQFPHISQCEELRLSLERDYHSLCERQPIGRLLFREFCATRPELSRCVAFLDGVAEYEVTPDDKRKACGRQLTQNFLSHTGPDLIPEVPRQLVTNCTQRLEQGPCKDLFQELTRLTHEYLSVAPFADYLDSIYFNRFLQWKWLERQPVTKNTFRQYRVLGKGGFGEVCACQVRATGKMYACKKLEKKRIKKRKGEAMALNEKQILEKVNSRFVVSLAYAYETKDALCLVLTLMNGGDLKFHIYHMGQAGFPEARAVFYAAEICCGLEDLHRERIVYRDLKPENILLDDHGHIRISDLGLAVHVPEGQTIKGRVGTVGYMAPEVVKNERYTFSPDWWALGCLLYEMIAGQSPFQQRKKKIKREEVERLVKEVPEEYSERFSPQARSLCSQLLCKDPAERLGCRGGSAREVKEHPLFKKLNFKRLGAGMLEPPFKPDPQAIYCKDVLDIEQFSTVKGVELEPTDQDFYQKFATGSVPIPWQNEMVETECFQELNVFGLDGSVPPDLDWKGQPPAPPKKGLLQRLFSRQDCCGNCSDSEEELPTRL
Phosphorylase b kinase gamma catalytic chain, skeletal muscle/heart isoform (Homo sapiens), sequence (Q16816 whole entry, looked up, canonical isoform): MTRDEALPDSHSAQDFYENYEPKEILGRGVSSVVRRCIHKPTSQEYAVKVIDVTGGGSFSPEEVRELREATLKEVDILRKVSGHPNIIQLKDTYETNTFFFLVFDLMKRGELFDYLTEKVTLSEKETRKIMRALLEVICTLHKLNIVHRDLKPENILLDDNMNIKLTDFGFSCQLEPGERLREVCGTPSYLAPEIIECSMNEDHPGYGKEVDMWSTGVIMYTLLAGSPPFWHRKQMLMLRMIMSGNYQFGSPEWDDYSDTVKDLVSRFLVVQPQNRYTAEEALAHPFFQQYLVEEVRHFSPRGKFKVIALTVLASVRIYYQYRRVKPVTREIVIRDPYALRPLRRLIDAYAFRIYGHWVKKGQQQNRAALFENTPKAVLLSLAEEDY

SMILES: CC(=O)Nc1cccc(-n2c(=O)n(C3CC3)c(=O)c3c(Nc4ccc(I)cc4F)n(C)c(=O)c(C)c32)c1
- % of control [1]: 109%

SMILES: CN1Cc2nccc(-c3cn(C)nc3-c3ccc(F)cc3)c2C1=O
- % of inhibition [2]: -2%

SMILES: Nc1cnc(N2CCc3cc(S(=O)(=O)Nc4c(F)cc(Cl)cc4F)cc(N4CCCC4=O)c32)nc1 [TP-020n]
- % of control [3]: 100%

SMILES: CCN(CC)CCCCNc1ncc2cc(-c3cc(OC)cc(OC)c3)c(NC(=O)NC(C)(C)C)nc2n1
- % of control [4]: 100%

SMILES: CN(C(=O)c1cnn2cccnc12)c1cc2c(cc1N1CCOCC1)C(=O)N(C[C@@H](F)C(C)(C)O)C2
- dTM [5]: -0.3 K
- dTM [6]: 1.5 K

SMILES: CC[C@@H]1[C@H](F)C(=O)N[C@@H]1COc1nccc2cc(C(N)=O)c(OC)cc12 [ZIMLOVISERTIB]
- % of inhibition [7]: 3.09%
- % of inhibition ([8]; at 0.01 µM): -4.5%
- % of inhibition ([8]; at 0.04 µM): -21.2%
- % of inhibition ([8]; at 0.2 µM): -18%
- % of inhibition ([8]; at 1 µM): -3.6%
- % of inhibition ([8]; at 5 µM): -2.6%

SMILES: CN(C)C/C=C/C(=O)Nc1ccc(C(=O)N2CCCC(Nc3ncc(Cl)c(-c4c[nH]c5ccccc45)n3)C2)cc1 (stereo not given)
- % of control [9]: 95%

SMILES: C=CC(=O)Nc1cc(-n2c(=O)ccc3cnc4ccc(-c5ccc(NS(C)(=O)=O)cc5)cc4c32)ccc1C
- % of control ([10]; at 1 µM): 76%
- % of control ([10]; at 10 µM): 67%

SMILES: Cc1cc([C@@H](C)Nc2ccccc2C(=O)O)c2nc(N3CCOCC3)cc(=O)n2c1 [AZD-6482]
- % of control [11]: 93%

SMILES: Cc1cc(F)c(C(=O)Nc2cccc(-c3nncn3C(C)C)n2)cc1-n1cnc(C2CC2)c1
- % of control [12]: 84%

SMILES: Cn1cc(-n2cnc3c(NCc4nc5cc(Cl)c(Cl)cc5[nH]4)nc(N4CCOCC4)nc32)cn1
- % of inhibition [13]: -36.5%
- % of control [14]: -2.62%

SMILES: Cc1cc(C)cc([C@@H]2c3cc(C)ccc3NC(=O)CN2C(=O)c2ccc(Br)s2)c1
- % of inhibition (D(2) dopamine receptor): -1%
